Results: ChEMBL document CHEMBL1201862, “PubChem BioAssay data set” (2004)
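Values below derive from 48-hour exposures of cells grown in 96-well plates, with endpoints linearly interpolated between the two concentrations bracketing the appropriate inhibition level. The concentration for 50% growth inhibition is given as GI50.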 Activity calls are given as the source filed them. Cut-off read from the data, not from the text of the source: active = GI50 up to about 1.1 µM and inactive = higher.

Assays:
Test in all cases: inhibition of tumour cell growth, NCI panel, 48 h
[1] = tested on: SN12C
[2] = tested on: Hs-578T
[3] = tested on: NCI-H23
[4] = tested on: PC-3
[5] = tested on: UACC-257
[6] = tested on: NCI-H522
[7] = tested on: SK-MEL-5
[8] = tested on: NCI-H460
[9] = tested on: HOP-92
[10] = tested on: 786-0
[11] = tested on: OVCAR-3
[12] = tested on: MDA-N
[13] = tested on: TK-10
[14] = tested on: A498
[15] = tested on: SK-MEL-28
[16] = tested on: A549
[17] = tested on: SNB-75
[18] = tested on: MOLT-4
[19] = tested on: MCF7

SMILES	GI50 [1]	GI50 [2]	GI50 [3]	GI50 [4]	GI50 [5]	GI50 [6]	GI50 [7]	GI50 [8]	GI50 [9]	GI50 [10]	GI50 [11]	GI50 [12]	GI50 [13]	GI50 [14]	GI50 [15]	GI50 [16]	GI50 [17]	GI50 [18]	GI50 [19]
COc1ccc(Cc2nc3cc(C(F)(F)F)ccc3n2C[C@@H]2CCCN3CCCCC23)cc1 (stereo not given in full)	7.31 µM (inactive)	19.9 µM (inactive)	14.6 µM (inactive)	10.6 µM (inactive)	2.46 µM (inactive)	7 µM (inactive)	6.92 µM (inactive)	13.6 µM (inactive)	5.62 µM (inactive)	5.55 µM (inactive)	5.77 µM (inactive)	4.59 µM (inactive)	9.1 µM (inactive)	4.4 µM (inactive)	13 µM (inactive)	9.02 µM (inactive)	27.4 µM (inactive)	6.84 µM (inactive)	8.34 µM (inactive)
CCOC(=O)NC(NNc1ccc([N+](=O)[O-])cc1[N+](=O)[O-])(C(F)(F)F)C(F)(F)F	27.7 µM (inactive)	34.4 µM (inactive)	31.7 µM (inactive)	24.7 µM (inactive)	43.1 µM (inactive)	30.5 µM (inactive)	60.8 µM (inactive)	27.5 µM (inactive)	12.7 µM (inactive)	43.9 µM (inactive)	31.6 µM (inactive)	40.7 µM (inactive)	30.7 µM (inactive)	19.7 µM (inactive)	52.4 µM (inactive)	47 µM (inactive)	45.7 µM (inactive)	28.1 µM (inactive)	62.5 µM (inactive)
CCOS(=O)(=O)c1ccc(-c2c3nc(c(-c4ccc(S(=O)(=O)OCC)cc4)c4ccc([nH]4)c(-c4ccc(S(=O)(=O)OCC)cc4)c4nc(c(-c5ccc(S(=O)(=O)OCC)cc5)c5ccc2[nH]5)C=C4)C=C3)cc1	> 31.6 µM (inactive)	> 31.6 µM (inactive)	> 31.6 µM (inactive)	> 31.6 µM (inactive)	> 31.6 µM (inactive)	10.5 µM (inactive)	> 31.6 µM (inactive)	> 31.6 µM (inactive)	> 100 µM (inactive)	> 31.6 µM (inactive)	> 10 µM (inactive)	> 31.6 µM (inactive)	> 31.6 µM (inactive)	> 31.6 µM (inactive)	> 10 µM (inactive)	> 31.6 µM (inactive)	> 10 µM (inactive)	> 31.6 µM (inactive)	> 31.6 µM (inactive)
CC(Nc1cc(=O)n(C)c(=O)[nH]1)c1ccccc1 (stereo not given)	> 100 µM (inactive)	> 100 µM (inactive)	> 100 µM (inactive)	> 100 µM (inactive)	> 100 µM (inactive)	> 100 µM (inactive)	> 100 µM (inactive)	> 100 µM (inactive)	15.5 µM (inactive)	> 100 µM (inactive)	> 100 µM (inactive)	> 100 µM (inactive)	> 100 µM (inactive)	> 100 µM (inactive)	> 100 µM (inactive)	> 100 µM (inactive)	> 100 µM (inactive)	> 100 µM (inactive)	> 100 µM (inactive)
CC(=O)Oc1ccccc1C(=O)Nc1ncc([N+](=O)[O-])s1 [NITAZOXANIDE]	19.8 µM (inactive)	9.2 µM (inactive)	9.73 µM (inactive)	9.53 µM (inactive)	17.2 µM (inactive)	2.86 µM (inactive)	11.9 µM (inactive)	17.1 µM (inactive)	3.22 µM (inactive)	26.7 µM (inactive)	5.71 µM (inactive)	27.3 µM (inactive)	16.1 µM (inactive)	56.2 µM (inactive)	11.6 µM (inactive)	22 µM (inactive)	10.2 µM (inactive)	> 100 µM (inactive)	10.2 µM (inactive)
CCCNC(=S)N/C=C1/C(=O)Oc2ccccc2C1=O	> 100 µM (inactive)	50.4 µM (inactive)	> 100 µM (inactive)	> 100 µM (inactive)	> 100 µM (inactive)	> 100 µM (inactive)	> 100 µM (inactive)	> 100 µM (inactive)	53 µM (inactive)	> 100 µM (inactive)	> 100 µM (inactive)	> 100 µM (inactive)	> 100 µM (inactive)	88.9 µM (inactive)	> 100 µM (inactive)	> 100 µM (inactive)	33.2 µM (inactive)	> 100 µM (inactive)	> 100 µM (inactive)
O=C(N1CCOCC1)C1(c2ccccc2)CCNCC1	> 100 µM (inactive)	> 100 µM (inactive)	> 100 µM (inactive)	> 100 µM (inactive)	> 100 µM (inactive)	> 100 µM (inactive)	> 100 µM (inactive)	> 100 µM (inactive)	> 100 µM (inactive)	> 100 µM (inactive)	> 100 µM (inactive)	> 100 µM (inactive)	> 100 µM (inactive)	> 100 µM (inactive)	> 100 µM (inactive)	> 100 µM (inactive)	> 100 µM (inactive)	> 100 µM (inactive)	> 100 µM (inactive)
COc1cc(O)cc2oc(-c3ccc(O)cc3)cc(=O)c12	> 100 µM (inactive)	57 µM (inactive)	> 100 µM (inactive)	> 100 µM (inactive)	> 100 µM (inactive)	22.2 µM (inactive)	> 100 µM (inactive)	67.5 µM (inactive)	71.9 µM (inactive)	68.4 µM (inactive)	> 100 µM (inactive)	> 100 µM (inactive)	> 100 µM (inactive)	29.6 µM (inactive)	> 100 µM (inactive)	> 100 µM (inactive)	14 µM (inactive)	> 100 µM (inactive)	> 100 µM (inactive)
Cc1ccc(C)c(NC(=O)C(=O)C(c2cnc3ccc([N+](=O)[O-])cc3n2)[N+](=O)[O-])c1 (stereo not given)	59.7 µM (inactive)	> 100 µM (inactive)	> 100 µM (inactive)	52.1 µM (inactive)	38.6 µM (inactive)	21.1 µM (inactive)	48.3 µM (inactive)	42.7 µM (inactive)	36.2 µM (inactive)	52.8 µM (inactive)	68.1 µM (inactive)	70.6 µM (inactive)	27.3 µM (inactive)	33.2 µM (inactive)	> 100 µM (inactive)	58.3 µM (inactive)	81.7 µM (inactive)	25.9 µM (inactive)	> 100 µM (inactive)
COc1cc2c3c(n(C)c(=O)c2cc1OC)-c1cc2c(cc1C3=O)OCO2	38.6 µM (inactive)	> 80 µM (inactive)	5.01 µM (inactive)	> 70 µM (inactive)	> 83.9 µM (inactive)	1.46 µM (inactive)	9.2 µM (inactive)	0.596 µM (active)	38.2 µM (inactive)	16.9 µM (inactive)	53.5 µM (inactive)	41.6 µM (inactive)	> 100 µM (inactive)	46.2 µM (inactive)	> 66.1 µM (inactive)	55.1 µM (inactive)	3.73 µM (inactive)	0.44 µM (active)	1.23 µM (inactive)
